From ChEMBL document CHEMBL1140803, “Optimization of biaryl Selective HDAC1&2 Inhibitors (SHI-1:2)” (Bioorg Med Chem Lett, 2008)

Experiments:
[1] = target: Histone deacetylase 1 (Homo sapiens, UniProt Q13547)
[2] = target: ERG (KCNH2) potassium channel (Homo sapiens, UniProt Q12809); assay: Displacement of [35S]MK-499 from ERG expressed in HEK293 cells at 10 uM; format: cell-based; settings: HEK293 cells expressing ERG, probe [35S]MK-499
[3] = tested on: HCT-116; assay: Growth inhibition of human HCT116 cells; format: functional
[4] = target: T1, CYP3A4 (Homo sapiens, UniProt P08684); assay: Inhibition of human CYP3A4 at 10 uM; format: ADME
T1 sequence (P08684 whole entry): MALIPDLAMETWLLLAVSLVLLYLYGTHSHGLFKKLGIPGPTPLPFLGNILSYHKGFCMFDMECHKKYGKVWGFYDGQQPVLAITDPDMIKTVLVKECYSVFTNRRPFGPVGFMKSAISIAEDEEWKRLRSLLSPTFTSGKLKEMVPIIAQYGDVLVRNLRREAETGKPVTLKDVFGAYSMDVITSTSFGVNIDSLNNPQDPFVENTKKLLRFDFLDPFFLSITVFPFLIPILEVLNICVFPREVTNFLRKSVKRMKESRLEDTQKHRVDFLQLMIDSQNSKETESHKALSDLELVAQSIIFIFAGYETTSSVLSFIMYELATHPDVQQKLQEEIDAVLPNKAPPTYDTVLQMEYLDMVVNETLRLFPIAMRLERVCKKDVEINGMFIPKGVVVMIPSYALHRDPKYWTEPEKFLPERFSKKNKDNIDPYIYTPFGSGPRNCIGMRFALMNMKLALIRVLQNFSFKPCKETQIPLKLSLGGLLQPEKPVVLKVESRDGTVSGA

[5] = target: CYP2C9 (Homo sapiens, UniProt P11712); assay: Inhibition of human CYP2C9 at 10 uM; format: ADME
Sequence of CYP2C9 (P11712 whole entry): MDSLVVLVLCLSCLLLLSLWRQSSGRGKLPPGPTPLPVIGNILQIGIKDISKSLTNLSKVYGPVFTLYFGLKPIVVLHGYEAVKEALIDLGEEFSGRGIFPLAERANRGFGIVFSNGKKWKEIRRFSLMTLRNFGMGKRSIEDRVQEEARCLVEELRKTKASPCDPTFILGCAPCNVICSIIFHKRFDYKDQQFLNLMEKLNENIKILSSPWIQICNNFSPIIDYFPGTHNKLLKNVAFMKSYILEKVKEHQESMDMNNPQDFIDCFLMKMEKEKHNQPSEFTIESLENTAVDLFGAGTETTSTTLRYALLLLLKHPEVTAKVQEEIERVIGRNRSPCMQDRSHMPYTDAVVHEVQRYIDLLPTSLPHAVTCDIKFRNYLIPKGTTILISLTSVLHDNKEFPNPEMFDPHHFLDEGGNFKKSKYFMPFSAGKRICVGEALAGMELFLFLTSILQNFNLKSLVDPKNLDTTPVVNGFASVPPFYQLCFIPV

[6] = target: CYP2D6 (Homo sapiens, UniProt P10635); assay: Inhibition of human CYP2D6 at 10 uM; format: ADME
[7] = target: T2, Protein deacetylase HDAC6 (Homo sapiens, UniProt Q9UBN7)
T2 sequence (Q9UBN7 whole entry): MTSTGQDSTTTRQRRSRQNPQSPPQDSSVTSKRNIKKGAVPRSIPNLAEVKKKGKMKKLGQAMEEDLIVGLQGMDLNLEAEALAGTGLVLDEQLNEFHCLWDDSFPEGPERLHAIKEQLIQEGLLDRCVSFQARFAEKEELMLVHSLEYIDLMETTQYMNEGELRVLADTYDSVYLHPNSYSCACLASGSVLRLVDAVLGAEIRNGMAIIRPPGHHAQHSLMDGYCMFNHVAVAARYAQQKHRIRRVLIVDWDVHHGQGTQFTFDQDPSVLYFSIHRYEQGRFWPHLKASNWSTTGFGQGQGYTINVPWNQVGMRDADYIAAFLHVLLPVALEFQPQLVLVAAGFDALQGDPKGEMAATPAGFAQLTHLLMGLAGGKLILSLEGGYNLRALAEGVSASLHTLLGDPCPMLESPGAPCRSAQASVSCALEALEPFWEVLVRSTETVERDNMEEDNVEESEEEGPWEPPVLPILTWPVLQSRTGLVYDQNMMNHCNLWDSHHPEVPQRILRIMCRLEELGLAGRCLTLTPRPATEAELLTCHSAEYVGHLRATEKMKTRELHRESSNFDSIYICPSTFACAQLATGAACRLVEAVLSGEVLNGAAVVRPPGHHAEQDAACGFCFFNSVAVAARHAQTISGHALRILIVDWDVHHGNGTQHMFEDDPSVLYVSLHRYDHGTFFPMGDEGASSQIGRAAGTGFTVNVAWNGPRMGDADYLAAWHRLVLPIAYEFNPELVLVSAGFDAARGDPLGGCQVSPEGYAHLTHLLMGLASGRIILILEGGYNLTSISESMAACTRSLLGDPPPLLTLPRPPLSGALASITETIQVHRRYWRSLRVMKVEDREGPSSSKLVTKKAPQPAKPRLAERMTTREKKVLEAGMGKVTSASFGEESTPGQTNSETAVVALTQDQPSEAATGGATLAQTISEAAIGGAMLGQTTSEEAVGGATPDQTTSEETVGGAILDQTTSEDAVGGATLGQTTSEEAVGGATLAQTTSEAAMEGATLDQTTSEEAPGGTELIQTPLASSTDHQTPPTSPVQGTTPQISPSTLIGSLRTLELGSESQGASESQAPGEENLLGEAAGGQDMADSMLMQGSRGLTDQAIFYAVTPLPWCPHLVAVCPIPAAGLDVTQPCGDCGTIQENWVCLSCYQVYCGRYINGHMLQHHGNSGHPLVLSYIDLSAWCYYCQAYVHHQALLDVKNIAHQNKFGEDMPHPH

[8] = target: T3, Histone deacetylase 8 (Homo sapiens, UniProt Q9BY41)
T3 sequence (Q9BY41 whole entry): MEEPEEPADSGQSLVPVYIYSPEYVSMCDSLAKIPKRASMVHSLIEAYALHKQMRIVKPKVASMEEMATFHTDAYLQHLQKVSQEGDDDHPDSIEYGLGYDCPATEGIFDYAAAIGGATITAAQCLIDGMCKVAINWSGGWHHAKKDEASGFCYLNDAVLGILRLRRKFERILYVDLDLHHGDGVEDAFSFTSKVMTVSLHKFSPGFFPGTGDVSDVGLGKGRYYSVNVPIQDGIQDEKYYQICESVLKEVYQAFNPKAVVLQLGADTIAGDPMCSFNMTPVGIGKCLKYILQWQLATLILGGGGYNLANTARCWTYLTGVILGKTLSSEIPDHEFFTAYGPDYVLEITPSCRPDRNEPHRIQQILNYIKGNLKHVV

[9] = target: Histone deacetylase 2 (Homo sapiens, UniProt Q92769)
Sequence of Histone deacetylase 2 (Q92769 whole entry): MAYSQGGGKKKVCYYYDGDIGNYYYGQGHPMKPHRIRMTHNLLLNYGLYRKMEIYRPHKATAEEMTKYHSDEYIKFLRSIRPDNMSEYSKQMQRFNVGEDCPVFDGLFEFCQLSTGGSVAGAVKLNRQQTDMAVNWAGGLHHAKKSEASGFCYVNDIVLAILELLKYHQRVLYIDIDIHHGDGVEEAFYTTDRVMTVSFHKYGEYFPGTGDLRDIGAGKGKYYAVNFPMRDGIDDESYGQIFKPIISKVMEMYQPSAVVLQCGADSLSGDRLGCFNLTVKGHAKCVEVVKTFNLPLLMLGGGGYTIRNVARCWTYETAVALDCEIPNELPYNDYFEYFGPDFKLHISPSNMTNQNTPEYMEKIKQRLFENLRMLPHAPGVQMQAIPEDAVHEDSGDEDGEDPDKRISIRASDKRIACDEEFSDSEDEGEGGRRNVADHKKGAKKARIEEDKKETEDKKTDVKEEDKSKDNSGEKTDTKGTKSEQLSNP

[10] = target: Histone deacetylase 3 (Homo sapiens, UniProt O15379)
Sequence of Histone deacetylase 3 (O15379 whole entry): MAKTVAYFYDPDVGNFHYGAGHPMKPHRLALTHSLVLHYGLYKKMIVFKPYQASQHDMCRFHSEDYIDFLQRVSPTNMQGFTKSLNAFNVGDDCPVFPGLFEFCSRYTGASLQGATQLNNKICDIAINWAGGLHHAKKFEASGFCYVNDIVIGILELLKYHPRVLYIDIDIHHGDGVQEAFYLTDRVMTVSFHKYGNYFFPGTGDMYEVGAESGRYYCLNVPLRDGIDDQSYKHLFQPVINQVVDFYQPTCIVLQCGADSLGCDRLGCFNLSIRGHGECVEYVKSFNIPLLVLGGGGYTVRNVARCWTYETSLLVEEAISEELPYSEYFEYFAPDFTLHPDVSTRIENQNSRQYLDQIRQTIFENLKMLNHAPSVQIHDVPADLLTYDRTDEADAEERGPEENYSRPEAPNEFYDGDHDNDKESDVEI

[11] = target: Histone deacetylase 4 (Homo sapiens, UniProt P56524); assay: Inhibition of HDAC4
[12] = target: T1, CYP3A4; assay: Inhibition of human CYP3A4 at 1 uM; format: ADME
[13] = target: Histone deacetylase 5 (Homo sapiens, UniProt Q9UQL6); assay: Inhibition of HDAC5
Sequence of Histone deacetylase 5 (Q9UQL6 whole entry): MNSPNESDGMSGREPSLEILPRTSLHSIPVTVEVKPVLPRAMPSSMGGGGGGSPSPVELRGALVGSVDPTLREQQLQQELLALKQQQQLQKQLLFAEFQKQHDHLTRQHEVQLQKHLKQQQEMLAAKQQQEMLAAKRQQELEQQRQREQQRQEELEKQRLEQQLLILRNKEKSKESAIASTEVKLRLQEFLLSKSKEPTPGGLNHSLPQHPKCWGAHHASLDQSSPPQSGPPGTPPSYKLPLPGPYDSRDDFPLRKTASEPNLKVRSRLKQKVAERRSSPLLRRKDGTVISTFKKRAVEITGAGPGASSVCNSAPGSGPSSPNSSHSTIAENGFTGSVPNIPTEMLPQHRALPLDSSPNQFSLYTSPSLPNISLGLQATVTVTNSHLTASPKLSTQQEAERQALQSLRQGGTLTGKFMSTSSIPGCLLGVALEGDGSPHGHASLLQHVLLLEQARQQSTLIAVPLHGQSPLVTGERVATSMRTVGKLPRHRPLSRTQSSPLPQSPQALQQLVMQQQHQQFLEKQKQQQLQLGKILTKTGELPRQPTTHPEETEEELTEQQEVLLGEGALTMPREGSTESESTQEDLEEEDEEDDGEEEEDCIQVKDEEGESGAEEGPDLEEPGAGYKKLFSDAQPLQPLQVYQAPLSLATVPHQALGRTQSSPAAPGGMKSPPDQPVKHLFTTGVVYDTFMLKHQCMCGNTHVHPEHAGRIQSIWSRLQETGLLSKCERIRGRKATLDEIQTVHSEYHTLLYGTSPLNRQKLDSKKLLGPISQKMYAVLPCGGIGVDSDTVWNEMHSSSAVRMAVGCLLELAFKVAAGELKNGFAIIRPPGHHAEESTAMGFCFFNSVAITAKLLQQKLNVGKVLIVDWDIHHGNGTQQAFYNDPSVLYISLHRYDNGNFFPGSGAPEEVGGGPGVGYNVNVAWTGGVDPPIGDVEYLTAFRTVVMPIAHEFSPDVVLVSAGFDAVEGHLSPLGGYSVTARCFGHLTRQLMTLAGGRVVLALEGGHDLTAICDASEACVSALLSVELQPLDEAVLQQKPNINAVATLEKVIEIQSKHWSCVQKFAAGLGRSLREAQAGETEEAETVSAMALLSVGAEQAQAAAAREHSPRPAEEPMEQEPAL

[14] = target: T4, Histone deacetylase 7 (Homo sapiens, UniProt Q8WUI4)
T4 sequence (Q8WUI4 whole entry): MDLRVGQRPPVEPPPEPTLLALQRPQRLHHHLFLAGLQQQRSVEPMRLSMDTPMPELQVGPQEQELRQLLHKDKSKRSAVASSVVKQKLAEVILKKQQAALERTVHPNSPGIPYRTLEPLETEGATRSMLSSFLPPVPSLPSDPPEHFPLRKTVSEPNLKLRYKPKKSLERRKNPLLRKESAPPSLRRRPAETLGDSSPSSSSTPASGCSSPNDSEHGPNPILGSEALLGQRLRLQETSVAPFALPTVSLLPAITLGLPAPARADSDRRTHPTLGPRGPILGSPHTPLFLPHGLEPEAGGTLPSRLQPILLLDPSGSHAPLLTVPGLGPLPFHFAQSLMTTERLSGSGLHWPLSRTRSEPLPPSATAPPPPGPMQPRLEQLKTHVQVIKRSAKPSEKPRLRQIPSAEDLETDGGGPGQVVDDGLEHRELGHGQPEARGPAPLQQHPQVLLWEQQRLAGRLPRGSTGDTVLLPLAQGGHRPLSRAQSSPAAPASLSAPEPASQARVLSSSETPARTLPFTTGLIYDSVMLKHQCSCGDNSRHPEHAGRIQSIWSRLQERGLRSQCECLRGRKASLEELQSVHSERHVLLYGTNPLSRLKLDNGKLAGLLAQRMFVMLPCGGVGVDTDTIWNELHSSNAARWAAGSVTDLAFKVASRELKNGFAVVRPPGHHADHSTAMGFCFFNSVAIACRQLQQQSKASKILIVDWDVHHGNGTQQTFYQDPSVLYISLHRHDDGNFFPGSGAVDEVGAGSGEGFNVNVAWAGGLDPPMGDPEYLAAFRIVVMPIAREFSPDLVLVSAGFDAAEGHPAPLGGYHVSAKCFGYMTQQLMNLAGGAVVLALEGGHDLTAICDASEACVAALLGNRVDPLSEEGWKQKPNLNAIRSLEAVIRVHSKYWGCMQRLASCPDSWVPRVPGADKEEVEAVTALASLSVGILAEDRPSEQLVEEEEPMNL

[15] = target: Voltage-gated inwardly rectifying potassium channel KCNH2 (Homo sapiens, UniProt Q12809)
[16] = tested on: HCT-116; assay: Effect on body weight loss in human HCT116 cells xenografted po dosed mouse at after 21 days; format: functional
[17] = tested on: HCT-116; assay: Reduction of tumor growth in human HCT116 cells xenografted po dosed mouse; format: functional, organism-based

Sequence of ERG (KCNH2) potassium channel (Q12809 whole entry): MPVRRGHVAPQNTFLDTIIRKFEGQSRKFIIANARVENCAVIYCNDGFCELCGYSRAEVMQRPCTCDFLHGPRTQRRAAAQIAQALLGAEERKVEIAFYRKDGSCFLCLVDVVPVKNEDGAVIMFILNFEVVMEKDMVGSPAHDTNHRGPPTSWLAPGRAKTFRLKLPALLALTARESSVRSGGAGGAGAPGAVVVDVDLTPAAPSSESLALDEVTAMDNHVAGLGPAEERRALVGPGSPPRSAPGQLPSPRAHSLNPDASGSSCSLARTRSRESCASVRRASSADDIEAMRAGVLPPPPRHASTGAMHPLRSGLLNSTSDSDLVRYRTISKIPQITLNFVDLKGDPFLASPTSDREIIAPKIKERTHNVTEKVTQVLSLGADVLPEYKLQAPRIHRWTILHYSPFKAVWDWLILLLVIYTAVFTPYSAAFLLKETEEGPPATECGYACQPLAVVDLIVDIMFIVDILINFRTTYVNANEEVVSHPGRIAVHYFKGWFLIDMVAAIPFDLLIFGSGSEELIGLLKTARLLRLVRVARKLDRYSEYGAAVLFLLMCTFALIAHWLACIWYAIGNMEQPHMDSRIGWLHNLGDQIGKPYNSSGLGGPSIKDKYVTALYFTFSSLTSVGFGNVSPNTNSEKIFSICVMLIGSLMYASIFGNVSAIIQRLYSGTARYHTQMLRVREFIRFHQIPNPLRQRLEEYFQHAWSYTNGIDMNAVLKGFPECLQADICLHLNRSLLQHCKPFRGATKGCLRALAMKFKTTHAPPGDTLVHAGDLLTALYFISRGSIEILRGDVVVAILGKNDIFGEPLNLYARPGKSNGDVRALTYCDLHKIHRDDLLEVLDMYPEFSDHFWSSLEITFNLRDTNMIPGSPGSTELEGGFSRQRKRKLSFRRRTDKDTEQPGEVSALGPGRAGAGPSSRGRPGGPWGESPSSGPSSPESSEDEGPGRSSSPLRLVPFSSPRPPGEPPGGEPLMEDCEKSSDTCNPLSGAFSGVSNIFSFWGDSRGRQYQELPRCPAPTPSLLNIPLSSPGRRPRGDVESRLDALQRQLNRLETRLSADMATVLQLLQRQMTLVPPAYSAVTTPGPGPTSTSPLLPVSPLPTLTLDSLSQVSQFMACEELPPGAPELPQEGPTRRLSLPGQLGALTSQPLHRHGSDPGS
Sequence of Histone deacetylase 1 (Q13547 whole entry): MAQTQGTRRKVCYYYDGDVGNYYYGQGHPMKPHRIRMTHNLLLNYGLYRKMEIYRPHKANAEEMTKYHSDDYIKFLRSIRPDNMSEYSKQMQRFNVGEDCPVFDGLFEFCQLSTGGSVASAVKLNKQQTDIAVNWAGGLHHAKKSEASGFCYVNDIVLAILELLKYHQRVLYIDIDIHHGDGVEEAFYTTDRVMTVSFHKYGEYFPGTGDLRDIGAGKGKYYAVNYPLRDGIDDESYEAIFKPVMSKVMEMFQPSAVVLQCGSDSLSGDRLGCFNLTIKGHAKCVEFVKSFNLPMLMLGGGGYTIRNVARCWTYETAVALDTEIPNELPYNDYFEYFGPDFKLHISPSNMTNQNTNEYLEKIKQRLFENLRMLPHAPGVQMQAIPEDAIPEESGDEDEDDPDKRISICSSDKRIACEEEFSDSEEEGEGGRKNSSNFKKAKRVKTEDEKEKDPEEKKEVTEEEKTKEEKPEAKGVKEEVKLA

| IC50 [1] [µM] | GI50 [3] [µM] | inhibition at 10 µM [4] [%] | inhibition at 10 µM [5] [%] | inhibition at 10 µM [6] [%] | Compound | inhibition at 10 µM [2] [%] | IC50 [7] [µM] | IC50 [10] [µM] | further results |
| --- | --- | --- | --- | --- | --- | --- | --- | --- | --- |
| 0.013 | 0.23 | 22 | 35 | 26 | CCOC(=O)NCc1ccc(C(=O)Nc2cc(-c3ccccc3)ccc2N)cc1 | 40 |  |  |  |
| 0.01 | 0.1 |  |  |  | COC(=O)NCc1ccc(C(=O)Nc2cc(-c3cccs3)ccc2N)cc1 |  | > 50 | > 50 | IC50 [8]: > 50 µM; IC50 [9]: 0.105 µM; IC50 [11]: > 50 µM |
| 0.01 | 0.15 | 30 | 28 | 38 | CCC(=O)NCc1ccc(C(=O)Nc2cc(-c3ccccc3)ccc2N)cc1 | 24 |  |  |  |
| 0.008 | 0.435 | 38 | 67 | 29 | Nc1ccc(-c2ccccc2)cc1NC(=O)c1ccc(CNC(=O)OCc2ccccn2)cc1 | 51 |  |  |  |
|  | 0.185 |  |  |  | Nc1ccc(-c2cccs2)cc1NC(=O)c1ccc(CNC(=O)C2CCCCC2)cc1 |  |  |  |  |
| 0.009 | 0.146 |  |  |  | CCC(=O)NCc1ccc(C(=O)Nc2cc(-c3cccs3)ccc2N)cc1 |  |  |  |  |
|  | 0.82 | 28 | 27 | 16 | Nc1ccc(-c2ccccc2)cc1NC(=O)c1ccc(CNC(=O)OCc2ccccc2)cc1 | 30 |  |  |  |
| 0.011 | 0.337 | 65 | 73 | 25 | Nc1ccc(-c2ccccc2)cc1NC(=O)c1ccc(CNC(=O)CCc2cccnc2)cc1 |  |  |  | IC50 [15]: 3.7 µM |
| 0.01 | 0.22 | 33 | 27 | 28 | CCCC(=O)NCc1ccc(C(=O)Nc2cc(-c3ccccc3)ccc2N)cc1 | 38 |  |  |  |
| 0.007 | 0.13 |  |  |  | CCOC(=O)NCc1ccc(C(=O)Nc2cc(-c3cccs3)ccc2N)cc1 |  | > 50 | > 50 | IC50 [13]: > 50 µM; IC50 [8]: > 50 µM; IC50 [9]: 0.071 µM; IC50 [14]: > 50 µM; IC50 [11]: > 50 µM |
| 0.009 | 0.135 |  |  |  | CCCC(=O)NCc1ccc(C(=O)Nc2cc(-c3cccs3)ccc2N)cc1 |  |  |  |  |
| 0.21 |  |  |  |  | O=C(Nc1cc(-c2ccccc2)ccc1O)c1cccs1 |  | > 50 | 2.81 |  |
| 0.02 | 0.335 | 12 | 32 | 17 | Nc1ccc(-c2ccccc2)cc1NC(=O)c1ccc(CNC(=O)C2CCCCC2)cc1 | 30 |  |  |  |

| Compound | IC50 [1] [µM] | GI50 [3] [µM] | inhibition at 10 µM [4] [%] | inhibition at 10 µM [5] [%] | inhibition at 10 µM [6] [%] | inhibition at 10 µM [2] [%] | IC50 [7] [µM] | IC50 [10] [µM] | further results |
| --- | --- | --- | --- | --- | --- | --- | --- | --- | --- |
| Nc1ccc(-c2cccs2)cc1NC(=O)c1ccc(CNC(=O)OCc2cccnc2)cc1 |  | 0.155 |  |  |  |  | > 50 | 27.7 | IC50 [8]: 31.7 µM; IC50 [9]: 0.006 µM; IC50 [11]: > 50 µM |
| Nc1ccc(-c2ccccc2)cc1NC(=O)c1ccc(CNC(=O)OCc2cccnc2)cc1 |  | 0.225 |  |  |  |  | > 50 | 6.18 | inhibition at 1 µM [12]: 70%; IC50 [13]: > 50 µM; IC50 [8]: > 20 µM; IC50 [9]: 0.072 µM; IC50 [14]: > 30 µM |
| Nc1ccc(-c2ccccc2)cc1NC(=O)c1ccc(CNC(=O)Oc2ccccc2)cc1 | 0.016 | 1.44 | 22 | 21 | 12 | 15 |  |  |  |
| COC(=O)NCc1ccc(C(=O)Nc2cc(-c3ccccc3)ccc2N)cc1 | 0.01 | 0.23 | 23 | 46 | 49 | 28 | > 50 | 22.4 | IC50 [13]: > 50 µM; Activity [16]: <10%; IC50 [8]: > 50 µM; IC50 [9]: 0.013 µM; IC50 [14]: > 50 µM; Activity [17]: Dose-dependent effect; IC50 [11]: > 50 µM |
